Laboratory results published in ChEMBL document CHEMBL1155738, “Suppressors of cancer cell proliferation from fig (Ficus carica) resin: isolation and structure elucidation” (J Nat Prod, 2001).
Activity calls are given as the source filed them. No cut-off for these calls is given here.

Test system: Raji
Experiment: Cytotoxicity against human Raji cells at 25 to 50 ug/mL after 3 days by MTT assay
Type: functional, cell-based

Row | SMILES | Activity
1 | CCCCCCCCCCCCCCCC(=O)OC[C@H]1O[C@@H](O[C@H]2CC[C@@]3(C)C(=CC[C@H]4[C@@H]5CC[C@H]([C@H](C)CC[C@H](CC)C(C)C)[C@@]5(C)CC[C@@H]43)C2)[C@H](O)[C@@H](O)[C@@H]1O | Active
2 | CCCCC/C=C/C/C=C/CCCCCCCC(=O)OC[C@H]1O[C@@H](O[C@H]2CC[C@@]3(C)C(=CC[C@H]4[C@@H]5CC[C@H]([C@H](C)CC[C@H](CC)C(C)C)[C@@]5(C)CC[C@@H]43)C2)[C@H](O)[C@@H](O)[C@@H]1O | Active
3 | CCCCCCCCCCCCCCCCCC(=O)OC[C@H]1O[C@@H](O[C@H]2CC[C@@]3(C)C(=CC[C@H]4[C@@H]5CC[C@H]([C@H](C)CC[C@H](CC)C(C)C)[C@@]5(C)CC[C@@H]43)C2)[C@H](O)[C@@H](O)[C@@H]1O | Active
